This experiment concerns crisis of withdrawal from morphine. The conditions noted are these: rat, in vivo.

The values that follow come from patent EP4473961A1, “ORAL SOLID PHARMACEUTICAL FORMULATION COMPRISING METHADONE/LEVOMETHADONE AND OPTIONALLY NALOXONE” (L. MOLTENI & C. DEI FRATELLI ALITTI SOCIETA' DI ESERCIZIO …, priority 2023, dated 2024).

As for `CCC(=O)C(CC(C)N(C)C)(c1ccccc1)c1ccccc1` (centres unmarked) [methadone], the “effect on withdrawal symptoms” value is given as “significantly reduced the symptoms” and the “values of the scores relative to the group treated with morphine alone” value is “about 50%”.
